In patent US12029738B2, “Antiproliferative compounds and methods of use thereof” (Celgene Corporation, priority 2017, dated 2024):
Entries after “also recorded” stand apart in the source; their conditions may differ.

What was measured:
[1] = test system: H929-1051; assay: Coculture of compound-treated anti-CD3-activated PBMCs with untreated myeloma cells; assay type: cell-based; settings: Homo sapiens, untreated H929-1051, T:E 1:5, 24 h, read-out: IC50 tumor cell lysis by compound-treated PBMCs
Experimental: (§1) Coculture Assays with Compound-treated Human Peripheral Blood Mononuclear Cells and Untreated Myeloma Cell Lines. Methods: Cell Culture. All myeloma cell lines were kept in log phase, and cell density and viability were monitored by trypan blue exclusion using the Vi-CELL XR cell viability analyzer.
(§2) PBMC Treatment Assay Procedure. Ninety-six-well dishes were pre-coated with anti-CD3 antibody (OKT3, 3 μg/mL) and incubated at 4° C. overnight before the start of the experiment. Frozen PBMC donors, were thawed at 37° C. for 2 minutes in RPMI medium with 10% FBS and cell counts and viability were measured on the Vi-CELL® (Beckman Coulter). Peripheral blood mononuclear cells were washed and diluted to 1×10^6 cells/mL and dispensed to the compound-treated plates in a total volume of 200 μL. Cells were incubated with compounds for 2 h before being transferred onto anti-CD3-coated plates and incubated for an additional 72 h at 37° C. After 72 h, the PBMCs were centrifuged, and cells were washed twice in RPMI medium+10% FBS. […] Peripheral blood mononuclear cells were counted and added to the MM cells at a target:effector (T:E) ratio of 1:5. After 24 h co-culture, specific target cell lysis by PBMCs was measured using Annexin V-AF647 and 7-AAD according to manufacturer's instructions and samples were run on the Attune NxT Cytometer (Thermo Fisher).

[2] = test system: NCI-H929; assay: as above; assay type: cell-based; settings: Homo sapiens, T:E 1:5, 24 h, read-out: IC50 tumor cell lysis by compound-treated PBMCs
Experimental: as §1, §2

[3] = test system: lenalidomide-resistant multiple myeloma cells (H929-1051); assay: Apoptosis induction with dexamethasone combinations (Caspase-Glo 3/7, 72 h); assay type: cell-based, human
Experimental: Methods: Dexamethasone was assessed for its ability to induce apoptosis as a single agent or in combination with Compound 2, pomalidomide, or lenalidomide. Induction of apoptosis was measured using Caspase-Glo in lenalidomide-resistant multiple myeloma cells (H929-1051). Dexamethasone was dispensed at 20 concentrations, using an acoustic dispenser. The test articles were added as single concentrations onto the dexamethasone wells with a Hewlett-Packard D300 Digital Dispenser. The final concentrations of compounds for the assay were: dexamethasone (0.8 μM to 0.00002 μM), lenalidomide (1 μM), pomalidomide (0.1 μM), and Compound 2 (0.001, 0.01, or 0.1 μM). Cells were dispensed into the assay plates with a Multidrop dispenser and duplicate plates were made for the assay. The apoptosis read was taken at 72 h post-compound treatment using a Caspase-Glo 3/7 and CellTiter-Glo Assays. The Caspase-Glo 3/7 luminescence was normalized to the CellTiter-Glo luminescence to account for differences in cell number. The fold change of the treated sample was calculated as follows: normalized caspase of treated sample/average of normalized DMSO control.

[4] = test system: MM cell lines; assay: Daratumumab-mediated ADCC assay; assay type: cell-based, human
Experimental: ADCC Assay: The effect of Compound 2 or pomalidomide on daratumumab-mediated ADCC was evaluated in vitro by flow cytometry in a panel of MM cell lines. The NK cells were cultured overnight in NK culture medium containing 10 U/mL of recombinant human IL-2 before the start of the assay. The NK cells were washed and resuspended back in NK cell culture medium at 3.75×10^6 cells/mL. The MM cells were pretreated with sub-lethal concentrations of Compound 2 or pomalidomide for 72 h before using in the ADCC assay. The MM cells were washed and labelled with Tag-it Violet™ Proliferation and Cell Tracking Dye according to the manufacturer's instructions, followed by resuspension in NK culture medium at a concentration of 0.75×10^6 cells/mL. The ADCC assay was performed in triplicate with an effector to tumor ratio of 10:1 in a 96 well plate. MM cells (10 μL) were mixed with 10 μL of 2× concentration of daratumumab in the wells before the addition of 20 μL of NK cells. The co-cultures were incubated at 37° C. for 3 h followed by the addition of 50 μL of 7-AAD solution at room temperature for 15 minutes. The analysis was performed on a BD Celesta flow cytometer.

[5] = test system: multiple myeloma and plasma cell leukemia cell lines (OPM2.P10, RPMI.8226, L363, JJN-3); assay: Combination with proteasome inhibitor pulse (flow cytometry, 72 h); assay type: cell-based, human; settings: then Compound 2 72 h
Experimental: Twenty four hours prior to treatment with a proteasome inhibitor and test compound, an appropriate number of cells were split to a concentration of 0.2×10^6/mL in fresh media to allow for exponential growth. On the day of treatment, compounds were freshly solvated in DMSO. Proteasome inhibitors bortezomib or carfilzomib were diluted and added to pre-warmed culture media at the final working concentrations of 150 nM or 300 nM for bortezomib and 300 nM or 550 nM for carfilzomib. Proteasome inhibitor concentrations were determined based upon clinical Cmax concentrations as well as previous studies in each cell line which determined the duration and concentration of PI required to inhibit a specific amount of β5 proteasome activity. Cells were counted and an appropriate number were placed into media containing proteasome inhibitor and thoroughly mixed. After incubation for 1 h at 37° C., 5% CO2, cells were washed two times with 40 mL of complete media to remove the proteasome inhibitor. […] Plated cells were cultured at 37° C., 5% C02, for the remainder of the experiment, up to 72 h. Every 24 h, proteasome inhibition was monitored by the Cell-Based Proteasome-Glo Assay. Proliferation and apoptosis were measured at 72 h by flow cytometry. Cells were stained with APC Annexin-V and 7-AAD to enumerate the number of viable cells remaining in culture.
An in vitro cell assay was established in order to mimic the clinical pharmacokinetics (PK) and pharmacodynamics (PD) of exposure to proteasome inhibitors bortezomib and carfilzomib.

[6] = test system: lenalidomide-resistant NCI-H929 (H929-1051) multiple myeloma/plasmacytoma tumors; assay: H929-1051 xenograft, Compound 2 alone and with bortezomib; assay type: in vivo, mouse
[7] = target: T1, CYP1A2 (Homo sapiens, UniProt P05177); assay: CYP inhibition in pooled human liver microsomes; assay type: in vitro ADME; settings: up to 30 μM
T1 construct: from tissue; host or cells: pooled human liver microsomes
T1 sequence (P05177 whole entry): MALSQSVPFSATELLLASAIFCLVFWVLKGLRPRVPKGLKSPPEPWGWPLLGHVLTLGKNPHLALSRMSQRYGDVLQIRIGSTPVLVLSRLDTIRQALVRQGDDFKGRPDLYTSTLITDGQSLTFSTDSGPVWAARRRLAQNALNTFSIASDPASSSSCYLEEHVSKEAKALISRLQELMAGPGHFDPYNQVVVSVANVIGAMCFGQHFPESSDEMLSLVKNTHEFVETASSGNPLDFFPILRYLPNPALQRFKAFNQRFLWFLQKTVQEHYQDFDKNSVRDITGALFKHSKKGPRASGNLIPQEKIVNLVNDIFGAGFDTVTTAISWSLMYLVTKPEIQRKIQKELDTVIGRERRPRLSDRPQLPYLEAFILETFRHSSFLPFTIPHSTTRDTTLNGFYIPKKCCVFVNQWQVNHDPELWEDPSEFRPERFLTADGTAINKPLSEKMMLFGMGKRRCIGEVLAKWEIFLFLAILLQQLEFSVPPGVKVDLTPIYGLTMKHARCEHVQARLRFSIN
Experimental: (§3) Methods. […] In addition, the compounds were evaluated for their potential to act as a time-dependent inhibitors at the same concentrations mentioned above. […] In addition to appropriate vehicle controls, known direct inhibitors and time-dependent inhibitors of CYP isoforms were included as positive controls. Following the incubation, concentrations of probe substrate metabolites were quantified using established LC/MS/MS methods. The extent of inhibition was expressed as the percentage of control activity.

[8] = target: T2, CYP2C8 (Homo sapiens, UniProt P10632); assay: CYP inhibition in pooled human liver microsomes; assay type: in vitro ADME; settings: up to 30 μM
T2 construct: from tissue; host or cells: pooled human liver microsomes
T2 sequence (P10632 whole entry): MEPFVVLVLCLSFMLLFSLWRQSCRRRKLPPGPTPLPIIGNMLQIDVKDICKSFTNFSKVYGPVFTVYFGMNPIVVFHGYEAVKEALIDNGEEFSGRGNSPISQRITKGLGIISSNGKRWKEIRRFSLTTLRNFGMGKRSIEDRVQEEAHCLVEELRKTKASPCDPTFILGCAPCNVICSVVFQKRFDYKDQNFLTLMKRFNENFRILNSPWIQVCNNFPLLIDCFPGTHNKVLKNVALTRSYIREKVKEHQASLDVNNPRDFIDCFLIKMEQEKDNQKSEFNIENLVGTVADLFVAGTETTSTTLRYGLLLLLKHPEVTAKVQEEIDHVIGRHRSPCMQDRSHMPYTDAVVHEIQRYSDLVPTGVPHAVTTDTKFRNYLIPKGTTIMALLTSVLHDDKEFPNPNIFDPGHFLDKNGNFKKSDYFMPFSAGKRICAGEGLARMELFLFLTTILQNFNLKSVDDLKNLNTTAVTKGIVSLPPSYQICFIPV
Experimental: as §3

[9] = target: T3, CYP2D6 (Homo sapiens, UniProt P10635); assay: CYP inhibition in pooled human liver microsomes; assay type: in vitro ADME; settings: up to 30 μM
T3 construct: from tissue; host or cells: pooled human liver microsomes
T3 sequence (P10635 whole entry): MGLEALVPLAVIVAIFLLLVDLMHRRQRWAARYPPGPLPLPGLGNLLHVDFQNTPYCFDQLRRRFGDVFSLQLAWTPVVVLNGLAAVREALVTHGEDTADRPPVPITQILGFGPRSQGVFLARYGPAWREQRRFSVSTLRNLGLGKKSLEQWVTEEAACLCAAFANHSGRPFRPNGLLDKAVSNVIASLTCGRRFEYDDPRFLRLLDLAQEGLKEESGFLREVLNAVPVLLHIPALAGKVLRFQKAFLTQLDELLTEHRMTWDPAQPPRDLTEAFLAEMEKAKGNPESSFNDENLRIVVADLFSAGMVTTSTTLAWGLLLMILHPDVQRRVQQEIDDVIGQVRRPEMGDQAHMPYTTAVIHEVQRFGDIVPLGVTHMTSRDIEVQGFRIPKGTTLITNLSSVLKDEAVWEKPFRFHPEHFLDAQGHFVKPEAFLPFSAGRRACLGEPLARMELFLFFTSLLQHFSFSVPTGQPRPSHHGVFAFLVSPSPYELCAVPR
Experimental: as §3

[10] = target: T4, CYP2E1 (Homo sapiens, UniProt P05181); assay: CYP inhibition in pooled human liver microsomes; assay type: in vitro ADME; settings: up to 30 μM
T4 construct: from tissue; host or cells: pooled human liver microsomes
T4 sequence (P05181 whole entry): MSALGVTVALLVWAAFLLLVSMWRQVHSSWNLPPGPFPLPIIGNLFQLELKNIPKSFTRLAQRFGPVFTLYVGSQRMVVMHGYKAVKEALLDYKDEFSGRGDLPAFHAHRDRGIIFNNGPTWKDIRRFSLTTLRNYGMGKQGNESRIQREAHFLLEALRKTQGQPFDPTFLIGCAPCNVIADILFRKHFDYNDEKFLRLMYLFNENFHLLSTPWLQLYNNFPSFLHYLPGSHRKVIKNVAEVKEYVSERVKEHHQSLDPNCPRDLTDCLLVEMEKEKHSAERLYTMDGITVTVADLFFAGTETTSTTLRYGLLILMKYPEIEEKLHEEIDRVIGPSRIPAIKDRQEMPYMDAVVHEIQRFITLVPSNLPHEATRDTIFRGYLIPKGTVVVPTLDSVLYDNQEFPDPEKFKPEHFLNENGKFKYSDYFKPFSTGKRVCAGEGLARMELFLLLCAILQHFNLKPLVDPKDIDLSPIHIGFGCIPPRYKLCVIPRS
Experimental: as §3

[11] = target: T5, CYP2A6 (Homo sapiens, UniProt P11509); assay: CYP inhibition in pooled human liver microsomes; assay type: in vitro ADME; settings: up to 30 μM
T5 construct: from tissue; host or cells: pooled human liver microsomes
T5 sequence (P11509 whole entry): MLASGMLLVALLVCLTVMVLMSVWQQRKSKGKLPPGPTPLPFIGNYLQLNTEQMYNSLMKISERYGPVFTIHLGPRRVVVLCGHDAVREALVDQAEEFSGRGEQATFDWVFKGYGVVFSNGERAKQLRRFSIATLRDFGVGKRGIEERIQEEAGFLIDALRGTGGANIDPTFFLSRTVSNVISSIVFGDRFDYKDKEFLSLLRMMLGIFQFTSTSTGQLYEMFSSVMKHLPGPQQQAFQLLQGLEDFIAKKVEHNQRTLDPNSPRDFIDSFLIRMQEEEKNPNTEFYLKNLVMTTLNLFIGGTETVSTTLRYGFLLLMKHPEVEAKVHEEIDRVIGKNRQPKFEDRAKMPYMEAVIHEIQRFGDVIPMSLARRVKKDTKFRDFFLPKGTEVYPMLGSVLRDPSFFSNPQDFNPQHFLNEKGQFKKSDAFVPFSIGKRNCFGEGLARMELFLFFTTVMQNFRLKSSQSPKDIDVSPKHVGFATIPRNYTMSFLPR
Experimental: as §3

[12] = 30 minute preincubation with or without NADPH

SMILES: N#Cc1ccc(N2CCN(Cc3ccc(COc4cccc5c4CN([C@H]4CCC(=O)NC4=O)C5=O)cc3)CC2)c(F)c1 [Compound 2, (S)-4-(4-(4-(((2-(2,6-dioxopiperidin-3-yl)-1-oxoisoindolin-4-yl)oxy)methyl)benzyl)piperazin-1-yl)-3-fluorobenzonitrile]
- IC50 [1]: 0.2 nM
- IC50 [2]: 5 nM
- combination effect with dexamethasone on cell viability and apoptosis ([3]; Compound 2 0.001, 0.01, 0.1 μM): synergized with dexamethasone
- shift of the onset of dexamethasone activity in the presence of Compound 2 ([3]; caspase-3 induction): 1 log
- daratumumab-mediated ADCC of pretreated MM cells ([4]; 72 h pretreatment, sub-lethal concentrations, NK cells E:T 10:1): higher degree of tumor lysis with daratumumab compared to untreated cells
- daratumumab-mediated ADCC ([4]; ARH-77 cell line): enhanced ADCC
- effect in combination with bortezomib ([5]; 1 h bortezomib pulse, OPM2.P10, RPMI.8226, JJN-3): demonstrated a combination effect
- effect in combination with carfilzomib ([5]; 1 h carfilzomib pulse, 4 cell lines): combination effects with Compound 2 were demonstrated in all 4 cell lines
- tumor volume reduction (TVR) ([6]; Compound 2 1 mg/kg qd×3 in combination with bortezomib 1 mg/kg single dose, day 50): 98%
- combination antitumor activity (fractional product method) ([6]; Compound 2 1 mg/kg with second agent 1 mg/kg): synergistic
- animals that became tumor free and remained tumor free ([6]; combination of Compound 2 and bortezomib, by day 53): 7 out of 9
- tumor growth inhibition / tumor volume reduction (TVR) ([6]; single agent Compound 2 1 mg/kg qd×3 (days 31-33), day 50): 44%
- day by which tumors reached approximately 2000 mm^3 ([6]; single agent, 1 mg/kg): 58 days

SMILES: O=C1CC[C@H](N2Cc3c(OCc4ccc(CN5CCN(c6ccc(F)cc6F)CC5)cc4)cccc3C2=O)C(=O)N1 [Compound B]
- time-dependent inhibition of CYP1A2 [7, 12]: little to no time-dependent inhibition; also recorded: not a time-dependent inhibitor
- direct inhibition of CYP1A2 ([7]; human liver microsomes): up to 30%
- time-dependent inhibition of CYP2C8 [8, 12]: little to no time-dependent inhibition; also recorded: not a time-dependent inhibitor
- direct inhibition of CYP2C8 ([8]; human liver microsomes): up to 30%
- time-dependent inhibition of CYP2D6 [9, 12]: little to no time-dependent inhibition; also recorded: not a time-dependent inhibitor
- direct inhibition of CYP2D6 ([9]; human liver microsomes): up to 30%
- time-dependent inhibition of CYP2E1 [10, 12]: little to no time-dependent inhibition; also recorded: not a time-dependent inhibitor
- direct inhibition of CYP2E1 ([10]; human liver microsomes): up to 30%
- time-dependent inhibition of CYP2A6 [11, 12]: little to no time-dependent inhibition; also recorded: not a time-dependent inhibitor
- direct inhibition of CYP2A6 ([11]; human liver microsomes): up to 30%
